Data set [1] is described as follows: Brain uptake of compound 2a by LC-MS/MS in C57BL/6J mice. Type of data set: in vivo. The following applies: C57BL6J mice, daily intraperitoneal injections 10 mg/kg; 1, 7, 15, 30 days. Here is the method: Compounds 2a, 4a, and standard R55/1 (10 mg/Kg) were intraperitoneally injected in C57BL6J mice daily. After 1 week, mice were sacrificed, saline perfused to avoid CNS contamination by compounds in blood circulation, and SC protein extracts were assayed by WB. […] Therefore, phenyl-1,3-bis-guanylhydrazone 2a was selected as an early lead.
Quantification of compound 2a in CNS extracts of C57BL/6J mice was performed at ProMeFa facility (Proteomics and Metabolomics Facility) of San Raffaele Scientific Institute. Wild-type C57BL/6J males mice (P60) were intraperitoneally injected with compound 2a (10 mg/kg) or vehicle, daily. We sacrificed mice at the following time points: 1, 7, 15, and 30 days. Before brains collection, mice received saline perfusion. Brains were weighted (~350 mg each) and rapidly frozen at −80 °C. The extraction was performed with methanol and each biological sample was resuspended in 60 µl of LC/MS grade water and 5 µL were analyzed by LC-MS/MS using the UPLC 1290 (Agilent Technologies) coupled to the TripleTOF 5600+ mass spectrometer (SCIEX). […] Calibration curve in brain was constructed by plotting the peak area versus corresponding quantities of compound 2a (0; 0.1; 0.26; 1 nmol, run in quadruplicates, R2 = 0.9443), using MultiQuant 2.1 software (SCIEX).

Data set [2] concerns SOD1^G93A-transfected Neuro2a cells. Kind of data set: Cell viability of SOD1G93A-transfected Neuro2a cells (colorimetric assay). Type of data set: cell-based. The following applies: 10 µM. The source says: The Golgi apparatus is affected in MNs from ALS patients and in cells overexpressing mutant SOD1 forms[35]–[37]. We transiently transfected Neuro2a cells with plasmids encoding SOD1^G93A before treatment with compound 2a. […] We next determined the viability of Neuro2a cells transfected with SOD1^G93A and exposed to compound 2a using a colorimetric assay. Controls cells received LacZ plasmids. […] We observed a slight, but not significant, reduction of cell viability in […] Neuro2a cells (Fig. 3b). […] The increased cell viability provided by compound 2a could result from unknown, nonspecific off-target effects. Therefore, we used plasmids encoding VPS35 to increase/stabilize the retromer complex. […] However, this phenotype was reverted co-transfecting VPS35 and SOD1^G93A plasmids (Fig. 3c).
Having observed a marked improvement of viability in SOD1^G93A-transfected Neuro2a cells with VPS35 gain of function, we investigated the effect of VPS35 loss of function. We transfected Neuro2a cells with RNAi plasmids encoding a siRNA duplex for VPS35, to knockdown VPS35 and disrupt the retromer assembly. […] By including Sh56 plasmids in the transfection mix, we worsened this phenotype (Fig. 3d). […] We next assayed cytotoxicity by measuring lactate dehydrogenase (LDH) release with a LDH-Glo™ cytotoxicity assay. […]

Another data set has as its system VPS26. Kind of data set: VPS26 / VPS26b levels in MNs and lumbar SC of treated G93A mice. Type of data set: in vivo. The following applies: 10 mg/kg, day 100.
Another data set has as its system Neuro2a cells. Kind of data set: Neuro2a cell survival (CCK8) with increasing 2a concentrations. Type of data set: cell-based. The following applies: 48 h. How it is done: We assessed the cytotoxicity of compound 2a, measuring survival of Neuro2a cells exposed to increasing 2a concentrations. […] We next checked for toxic effects of compound 2a in primary neuronal cultures coupled with Micro Electrode Array (MEA) devices. Mouse cortical neurons (E16.5) were plated on MEAs, kept in culture for 14 days to develop firing activity and recorded in presence of 2a.
Cell survival experiments were run on 96-well plates using Cell Counting Kit-8 (CCK8) survival kit (96992-Sigma–Aldrich) according the manufacturer’s recommendations. Compound 2a cytotoxicity was tested on Neuro2a cells receiving increasing amounts of compound 2a (1, 10, 50, 100, 200, 500, and 1000 µM) for 48 h. Data were acquired using an Epoch spectrophotometer equipped with the GEN5 (2.03.1) software (Agilent).

The structures appear in SMILES notation. Several values for one entry are separate records, joined by “and”; a condition that tells them apart may be missing. Identical values can stand only once.

On to `NC(N)=N/N=C/c1cccc(/C=N/N=C(N)N)c1` [compound 2a, phenyl-1,3-bis-guanylhydrazone], for which the “access to the CNS (brain uptake)” value in data set [1] is “confirmed its access to the CNS”. Moreover, the cell viability entry in data set [2] was “cell viability was restored”. Moreover, in the data set on VPS26, the “VPS26b levels in lumbar SC extracts (WB)” value was “increase VPS35 and VPS26b levels”. Further, the cell survival result with Neuro2a cells (10 μM) is “did not affect cell survival”. For the same compound, in the data set with Neuro2a cells (1–1000 µM), the LD50 was 257.9 µM and ~260 µM.

Source of the values: article PMC7395176, “Retromer stabilization results in neuroprotection in a model of Amyotrophic Lateral Sclerosis” (Nature Communications, 2020).
